Assay results as given in ChEMBL document CHEMBL1129482, “Synthesis and anti-herpes virus activity of 2'-deoxy-4'-thiopyrimidine nucleosides” (J Med Chem, 1996).

How the values were obtained:
Human betaherpesvirus 5 = test: Inhibitory activity against human cytomegalovirus (HCMV) strain AD169 in MRC-5 cells.; assay type: functional, organism-based; settings: Human betaherpesvirus 5, MRC5
[1] = Inhibitory activity against herpes simplex virus type 2 (HSV 2) strain 186 in Vero cells.; assay type: functional, cell-based
Vero [2] = test: Inhibitory dose required to reduce the growth of vero cells by 50% over a 4 day period.; assay type: functional, Chlorocebus sabaeus
Human alphaherpesvirus 3 = test: Inhibitory activity against varicella zoster virus (VZV) strain G31 in MRC-5 cells.; assay type: functional, organism-based; settings: Human alphaherpesvirus 3, MRC5
Human alphaherpesvirus 1 = test: Inhibitory activity against herpes simplex virus type 1 (HSV-1) strain SC16 in Vero cells.; assay type: functional, organism-based; settings: Human alphaherpesvirus 1, Vero
Vero [3] = test: Inhibitory dose required to reduce the growth of Vero cells by 50% over a 4 day period; assay type: functional, Chlorocebus sabaeus
MRC5 = test: Inhibitory activity against varicella zoster virus (VZV) strain G31 was determined in MRC-5 cells; Toxicity at 40 uM; assay type: functional, cell-based, Homo sapiens
Vero [4] = test: Inhibitory activity against herpes simplex virus type 1 (HSV 1) strain SC16 was determined in Vero cells; Range is 0.17-0.5 uM; assay type: functional, cell-based; settings: Chlorocebus sabaeus
Vero [5] = test: Inhibitory activity against herpes simplex virus type 2 (HSV 2) strain 186 was determined in Vero cells; Range is 2-5 uM; assay type: functional, cell-based; settings: Chlorocebus sabaeus

Row | IC50 [1] [µM] | IC50 (Human alphaherpesvirus 1) [µM] | Compound | IC50 (Human betaherpesvirus 5) [µM] | CCID50 (Vero [2]) [µM] | IC50 (Human alphaherpesvirus 3) [µM] | CCID50 (Vero [3]) [µM] | IC50 (MRC5) | IC50 (Vero [4]) [µM] | IC50 (Vero [5]) [µM]
1 | > 100 | 0.7 | O=c1[nH]c(=O)n([C@H]2CC(O)C(CO)S2)cc1CCF (stereo partly specified) | > 100 | >500 | 0.12 |  |  |  | 
2 | > 100 |  | O=c1[nH]c(=O)n([C@H]2CC(O)C(CO)S2)cc1CC(F)(F)F (stereo partly specified) | > 100 | >500 | > 40 |  |  |  | 
3 | > 100 | > 100 | COc1cn(C2CC(O)C(CO)S2)c(=O)[nH]c1=O (stereo unspecified) | > 100 |  | > 100 |  |  |  | 
4 | > 100 |  | COCCc1cn([C@H]2CC(O)C(CO)S2)c(=O)[nH]c1=O (stereo partly specified) | > 100 |  | > 10 |  |  |  | 
5 | > 100 | > 100 | C#CCc1cn([C@H]2CC(O)C(CO)S2)c(=O)[nH]c1=O (stereo partly specified) | 100 | 492 | 1.4 |  |  |  | 
6 | 10 | 0.8 | O=c1[nH]c(=O)n([C@H]2CC(O)C(CO)S2)cc1I (stereo partly specified) | 4 | >100 | 3.5 |  |  |  | 
7 | > 100 |  | CCC(C)c1cn(C2CC(O)C(CO)S2)c(=O)[nH]c1=O (stereo unspecified) | > 100 | >500 |  |  |  |  | 
8 | > 100 |  | CSCc1cn(C2CC(O)C(CO)S2)c(=O)[nH]c1=O (stereo unspecified) | > 100 | >500 |  |  |  |  | 
9 | > 100 | 0.15 | O=c1[nH]c(=O)n(C2CC(O)C(CO)S2)cc1CCCl (stereo unspecified) |  | >200 | 0.3 |  |  |  | 
10 | > 10 | 6.8 | CCCc1cn([C@H]2CC(O)C(CO)S2)c(=O)[nH]c1=O (stereo partly specified) | > 100 | >100 | 3 |  |  |  | 
11 | > 100 | 5.3 | O=c1[nH]c(=O)n([C@H]2CC(O)C(CO)S2)cc1Br (stereo partly specified) | 0.44 | >500 | > 40 |  |  |  | 
12 | > 100 |  | CCc1cn([C@@H]2CC(O)C(CO)S2)c(=O)[nH]c1=O (stereo partly specified) | > 100 | >100 | > 100 |  |  |  | 
13 | > 10 | > 10 | COCc1cn(C2CC(O)C(CO)S2)c(=O)[nH]c1=O (stereo unspecified) | > 100 |  | > 10 |  |  |  | 
14 | > 10 | > 10 | O=c1[nH]c(=O)n(C2CC(O)C(CO)S2)cc1F (stereo unspecified) | > 100 | 92 | > 100 |  |  |  | 
15 | > 10 | > 10 | CC(=O)c1cn(C2CC(O)C(CO)S2)c(=O)[nH]c1=O (stereo unspecified) | > 100 | 351 | > 10 |  |  |  | 
16 | > 100 | > 100 | O=c1[nH]c(=O)n([C@H]2CC(O)C(CO)S2)cc1Cl (stereo partly specified) | 0.2 | 59 | > 40 |  |  |  | 

The next lines start with the compound.

Row | Compound | IC50 [1] [µM] | IC50 (Human alphaherpesvirus 1) [µM] | IC50 (Human betaherpesvirus 5) [µM] | CCID50 (Vero [2]) [µM] | IC50 (Human alphaherpesvirus 3) [µM] | CCID50 (Vero [3]) [µM] | IC50 (MRC5) | IC50 (Vero [4]) [µM] | IC50 (Vero [5]) [µM]
17 | CC(C)(C)c1cn([C@H]2CC(O)C(CO)S2)c(=O)[nH]c1=O (stereo partly specified) | > 100 |  | > 100 | 475 |  |  |  |  | 
18 | O=c1[nH]c(=O)n([C@H]2CC(O)C(CO)S2)cc1/C=C/Cl (stereo partly specified) | > 100 | 0.5 | > 100 | >500 | > 10 |  |  |  | 
19 | C=C(C)c1cn([C@H]2CC(O)C(CO)S2)c(=O)[nH]c1=O (stereo partly specified) | > 100 | 3.4 | > 100 |  | < 40 | >500 |  |  | 
20 | O=c1[nH]c(=O)n([C@H]2CC(O)C(CO)S2)cc1[N+](=O)[O-] (stereo partly specified) | 27 | 18 |  | 476 | 13 |  |  |  | 
21 | O=C1NC(=O)N(C2CC(O)C(CO)S2)C2CCCC12 (stereo unspecified) | > 100 |  | > 100 | >500 | > 40 |  |  |  | 
22 | O=c1[nH]c(=O)n([C@H]2CC(O)C(CO)S2)cc1C12CC3CC(CC(C3)C1)C2 (stereo partly specified) | > 100 | > 100 | > 100 | >125 |  |  | Toxic |  | 
23 | O=c1[nH]c(=O)n([C@@H]2CC(O)C(CO)S2)cc1[N+](=O)[O-] (stereo partly specified) | > 100 | > 100 |  |  | > 100 |  |  |  | 
24 | N#Cc1cn([C@H]2CC(O)C(CO)S2)c(=O)[nH]c1=O (stereo partly specified) | > 100 | > 100 | > 100 | >500 | > 100 |  |  |  | 
25 | C#Cc1cn([C@H]2CC(O)C(CO)S2)c(=O)[nH]c1=O (stereo partly specified) | > 10 | 6.6 | 9.3 | 33 | 5.5 |  |  |  | 
26 | CC(O)c1cn(C2CC(O)C(CO)S2)c(=O)[nH]c1=O (stereo unspecified) | > 100 | 40 | > 100 | >500 | 12 |  |  |  | 
27 | C/C=C/c1cn([C@H]2CC(O)C(CO)S2)c(=O)[nH]c1=O (stereo partly specified) | > 20 | > 2 | > 100 | >100 | 0.46 |  |  |  | 
28 | O=c1[nH]c(=O)n([C@H]2CC(O)C(CO)S2)cc1C(F)(F)F (stereo partly specified) | 15 | < 1.6 | > 10 | 139 |  |  |  |  | 
29 | COC(C)c1cn(C2CC(O)C(CO)S2)c(=O)[nH]c1=O (stereo unspecified) | > 100 | > 100 | > 100 | >500 | > 40 |  |  |  | 
30 | O=c1[nH]c(=O)n([C@H]2CC(O)C(CO)S2)cc1C=C(F)F (stereo partly specified) | > 100 |  | > 100 | >500 | > 10 |  |  |  | 
31 | O=c1[nH]c(=O)n([C@H]2CC(O)C(CO)S2)cc1C(F)=C(Cl)Cl (stereo partly specified) |  | > 50 | > 100 | >500 | > 100 |  |  |  | 
32 | C=Cc1cn([C@H]2CC(O)C(CO)S2)c(=O)[nH]c1=O (stereo partly specified) | > 100 | 1.4 | 93 | >500 | 1.1 |  |  |  | 
33 | CCc1cn([C@H]2CC(O)C(CO)S2)c(=O)[nH]c1=O (stereo partly specified) |  |  | 138 | >100 | 0.99 |  |  | 0.17 | 2
34 | O=c1[nH]c(=O)n([C@@H]2CC(O)C(CO)S2)cc1C(F)(F)F (stereo partly specified) | > 100 |  | > 100 | >500 |  |  |  |  | 
35 | O=c1[nH]c(=O)n([C@H]2CC(O)C(CO)S2)cc1C1CC1 (stereo partly specified) | > 100 | 1.6 | > 100 | >500 | 0.5 |  |  |  | 
36 | CC(C)c1cn([C@H]2CC(O)C(CO)S2)c(=O)[nH]c1=O (stereo partly specified) | > 100 | 2.2 | > 100 | >500 | 4.1 |  |  |  | 
37 | Nc1nc2c(ncn2COCCO)c(=O)[nH]1 [ACYCLOVIR] | 1.7 | 1.8 | > 85 | >500 |  |  |  |  | 
38 | O=c1[nH]c(=O)n([C@H]2C[C@H](O)[C@@H](CO)O2)cc1/C=C/Br [BRIVUDINE] | 10 | 1.4 | > 100 | >250 | < 1 |  |  |  | 
39 | Nc1nc(O)c2ncn(CCC(CO)CO)c2n1 [PENCICLOVIR] | 12.8 | 3.9 | > 100 |  | 78.7 |  |  |  | 
